The record followed here is patent US20200405885A1, “MAGNETIC RESONANCE IMAGING (MRI) CONTRAST AGENTS AND USE THEREOF” (TECHNION RESEARCH & DEVELOPMENT FOUNDATION LTD., priority 2017, published 2020).

Series [1] can be described thus: Phantom T1 MRI measurement (1 T scanner). Conditions: 0.1 mM dissolved in water vs control (0 mM), 1 T MRI scanner. The method, then:
(§1) FIGS. 4A-C present the characterization of the MFS-agent 2 using different imaging modalities; (4A) Phantom T1 MRI-measurement (Bruker, ASPECT 1 T MRI scanner, USA) of control (0 mM) and MFS-agent (0.1 mM dissolved in water), (4B) Emission spectra of the MFS measured by confocal microscope (LSM-880, Zeiss, Germany) with 561 nm laser excitation (peak emission (nm): 617), (4C) and Phantom measurement in X-ray micro-Computed Tomography scanner (Bruker, Skyscan micro-CT, USA) of control (0 mM) and MFS-agent (0.1 mM dissolved in water).
(§2) To examine the multi-functionality of the complete MFS-agent 2 (FIG. 2B), compound 2 was solubilized in water (0.1 mM) and imaged via three distinct imaging modalities (FIG. 4A-C). […] This is a highly desirable trait, for a molecule that will be delivered through the blood stream. […] Red fluorescence emission was determined by using spectral analysis of a confocal microscope (FIG. 4B).

Series [2] can be described thus: Emission spectrum by confocal microscope. The format is physicochemical. Particulars: 561 nm laser excitation. The protocol: as §1, §2
Series [3] in a line: Solubilization of MFS-agent in water. The format is physicochemical. Conditions: 0.1 mM in water, no DMSO or other solvents. The protocol:
as §2

Series [4] is described as follows: Phantom measurement in X-ray micro-CT scanner. Conditions: 0.1 mM dissolved in water vs control (0 mM). The protocol: as §1, §2

Turning to `Nc1nc(OCc2ccc(CNC(=O)NCCOCCN(CCOCCn3cc(CNC(=O)CN4CCN(CC(=O)O)CCN(CC(=O)O)CCN(CC(=O)O)CC4)nn3)S(=O)(=O)c3ccc(C4=c5cc6c7c(c5Oc5c4cc4c8c5CCCN8CCC4)CCC[N+]=7CCC6)c(S(=O)(=O)O)c3)cc2)c2nc[nH]c2n1` [compound 2], the “T1 MRI contrast” value in series [1] is on record as “very bright contrast”. The compound also returned a peak emission in series [2] of 617 nm. Besides, the solubility in water result in series [3] was “dissolved easily in water”. The “CT signal (X-ray attenuation)” value in series [4] is on record as “very strong CT signal”.
